{
  "source": "patent US20080103201A1",
  "about": "“Novel alpha-Glucosidase inhibitor from Tabernaemontana dichotoma” (priority 2006, published 2008)",
  "key": {"[1]": {"biological_target": "α-glucosidase (E.C.3.2.1.20)", "test": "α-Glucosidase enzyme inhibition assay (PNP-G substrate, spectrophotometric)", "type": "biochemical", "protocol": "α-Glucosidase (E.C.3.2.1.20) enzyme inhibition assay was performed according to the slightly modified method of Matsui et al. α-glucosidase (E.C.3.2.1.20) from Saccharomyces species, purchased from Wako Pure Chemical Industries Ltd. (Wako 076-02841). The enzyme inhibition was measured spectrophotometrically at pH 6.9 and at 37° C. using 0.7 mM p-nitrophenyl-α-D-glucopyranoside (PNP-G) as a substrate and 500 m units/mL enzyme, in 50 mM sodium phosphate buffer containing 100 mM NaCl. […] The increment in absorption at 400 nm, due to the hydrolysis of PNP-G by α-glucosidase, was monitored continuously on microplate spectrophotometer (Spectra Max Molecular Devices, USA).) [T. Matsui, C. Yoshimoto, K. Osajima, T. Oki, and Y. Osajima. Biosci. Biotech. Biochem., 1996, 60, 2019]."}, "[2]": {"test": "Post-prandial blood glucose concentration in rats", "type": "in vivo"}},
  "data": [
    {"smiles": "CC(=O)OC1CCC2(C)C(CCC3(C)C2CC=C2C4CC(C)(C)CCC4(C)CCC23C)C1(C)C", "note": "(stereo not drawn) [β-Amyrin acetate, 12-Oleanen-3-yl acetate]", "values": [
      {"measurement": "IC50", "setting": "[1]; pH 6.9, 37° C., 0.7 mM PNP-G substrate, 500 m units/mL enzyme", "result": "22.27 ± 0.112", "unit": "µM"},
      {"measurement": "potency compared with Acarbose (times)", "setting": "[1]; α-glucosidase inhibition, relative to acarbose", "result": "approximately 35 times"},
      {"measurement": "post-prandial blood glucose concentration", "setting": "[2]", "result": "reduced"}
    ]}
  ]
}
